Source: patent US12655107B2 (The United States of America, as represented by the …, priority 2018, dated 2026)
Where two headings read alike, the source gives them in different places.

What was measured:
Format in all cases: cell-based, human
[1] = system: HCT116; assay: MTT cytotoxicity assay, HCT116
Procedure: (§1) Cytotoxicity Assays. […] The cells were incubated with the tested compounds for 72 hours in a five-dose assay ranging from 0.01 to 100 μM concentration. After drug treatments, MTT solution was added to test the percentage growth of tumor cells.
(§2) The compounds were incubated with the cells for 72 hours in a five-dose assay ranging from 0.01 to 100 μM concentration. At the end of the incubation, the MTT solution was added to test the percentage growth of tumor cells.
(§3) For the drug treatment experiments, the cancer cells were treated with the compounds (predissolved in DMSO) at a five-dose assay ranging from 0.01 to 100 μM concentration. […] After 4 h incubation, the formazan crystal formed in the well was dissolved with […] of DMSO for optical density reading at 570 nm. The GI50 value was calculated by nonlinear regression analysis (GraphPad Prism).

[2] = system: A549; assay: MTT cytotoxicity assay, A549; conditions: 72 h, Table 7, read-out: GI50 ± SC (μM) A-49
Procedure: as §1, §2, §3

[3] = system: MCF-7; assay: MTT cytotoxicity assay, MCF-7
Procedure: as §2, §3

[4] = system: A498; assay: NCI-60 cytotoxicity; conditions: NCI-60 Renal Cancer, 48 h
Procedure: (§4) Cell growth inhibition (GI50 in Table 3) was calculated relative to cells without compound treatment and the time zero control.
(§5) Regarding Table 8, according to the NCI established procedures, the cells were incubated with 67 or 50 for 48 hours and stained with sulforhodamine B dye.

[5] = system: A549/ATCC; assay: NCI-60 cytotoxicity; conditions: NCI-60 Non-Small Cell Lung Cancer, 48 h
Procedure: as §4, §5

[6] = system: ACHN; assay: NCI-60 cytotoxicity; conditions: NCI-60 Renal Cancer, 48 h
Procedure: as §4, §5

[7] = system: BT-549; assay: NCI-60 cytotoxicity; conditions: NCI-60 Breast Cancer, 48 h
Procedure: as §4, §5

[8] = system: CAKI-1; assay: NCI-60 cytotoxicity; conditions: NCI-60 Renal Cancer, 48 h
Procedure: as §4, §5

[9] = system: CCRF-CEM; assay: NCI-60 cytotoxicity; conditions: NCI-60 Leukemia, 48 h
Procedure: as §4, §5

[10] = system: COLO 205; assay: NCI-60 cytotoxicity; conditions: NCI-60 Colon Cancer, 48 h
Procedure: as §4, §5

[11] = system: EKVX; assay: NCI-60 cytotoxicity; conditions: NCI-60 Non-Small Cell Lung Cancer, 48 h
Procedure: as §4, §5

[12] = system: HCC-2998; assay: NCI-60 cytotoxicity; conditions: NCI-60 Colon Cancer, 48 h
Procedure: as §4, §5

[13] = system: HCT-15; assay: NCI-60 cytotoxicity; conditions: NCI-60 Colon Cancer, 48 h
Procedure: as §4, §5

[14] = system: HCT116; assay: NCI-60 cytotoxicity; conditions: NCI-60 Colon Cancer, 48 h
Procedure: as §4, §5

[15] = system: HOP-62; assay: NCI-60 cytotoxicity; conditions: NCI-60 Non-Small Cell Lung Cancer, 48 h
Procedure: as §4, §5

[16] = system: HS 578T; assay: NCI-60 cytotoxicity; conditions: NCI-60 Breast Cancer, 48 h
Procedure: as §4, §5

[17] = system: HT29; assay: NCI-60 cytotoxicity; conditions: NCI-60 Colon Cancer, 48 h
Procedure: as §4, §5

[18] = system: IGROV1; assay: NCI-60 cytotoxicity; conditions: NCI-60 Ovarian Cancer, 48 h
Procedure: as §4, §5

[19] = system: K-562; assay: NCI-60 cytotoxicity; conditions: NCI-60 Leukemia, 48 h
Procedure: as §4, §5

[20] = system: LOX IMVI; assay: NCI-60 cytotoxicity; conditions: NCI-60 Melanoma, 48 h
Procedure: as §4, §5

[21] = system: M14; assay: NCI-60 cytotoxicity; conditions: NCI-60 Melanoma, 48 h
Procedure: as §4, §5

[22] = system: MCF7; assay: NCI-60 cytotoxicity; conditions: NCI-60 Breast Cancer, 48 h
Procedure: as §4, §5

[23] = system: NCI-H226; assay: NCI-60 cytotoxicity; conditions: NCI-60 Non-Small Cell Lung Cancer, 48 h
Procedure: as §4, §5

[24] = system: NCI-H23; assay: NCI-60 cytotoxicity; conditions: NCI-60 Non-Small Cell Lung Cancer, 48 h
Procedure: as §4, §5

[25] = system: NCI-H322M; assay: NCI-60 cytotoxicity; conditions: NCI-60 Non-Small Cell Lung Cancer, 48 h
Procedure: as §4, §5

[26] = system: NCI-H460; assay: NCI-60 cytotoxicity; conditions: NCI-60 Non-Small Cell Lung Cancer, 48 h
Procedure: as §4, §5

[27] = system: NCI-H522; assay: NCI-60 cytotoxicity; conditions: NCI-60 Non-Small Cell Lung Cancer, 48 h
Procedure: as §4, §5

[28] = system: OVCAR-3; assay: NCI-60 cytotoxicity; conditions: NCI-60 Ovarian Cancer, 48 h
Procedure: as §4, §5

[29] = system: OVCAR-4; assay: NCI-60 cytotoxicity; conditions: NCI-60 Ovarian Cancer, 48 h
Procedure: as §4, §5

[30] = system: OVCAR-8; assay: NCI-60 cytotoxicity; conditions: NCI-60 Ovarian Cancer, 48 h
Procedure: as §4, §5

[31] = system: RPMI-8226; assay: NCI-60 cytotoxicity; conditions: NCI-60 Leukemia, 48 h
Procedure: as §4, §5

[32] = system: SF-295; assay: NCI-60 cytotoxicity; conditions: NCI-60 CNS Cancer, 48 h
Procedure: as §4, §5

[33] = system: SK-MEL-28; assay: NCI-60 cytotoxicity; conditions: NCI-60 Melanoma, 48 h
Procedure: as §4, §5

[34] = system: SK-MEL-5; assay: NCI-60 cytotoxicity; conditions: NCI-60 Melanoma, 48 h
Procedure: as §4, §5

[35] = system: SN 12C; assay: NCI-60 cytotoxicity; conditions: NCI-60 Renal Cancer, 48 h
Procedure: as §4, §5

[36] = system: SNB-19; assay: NCI-60 cytotoxicity; conditions: NCI-60 CNS Cancer, 48 h
Procedure: as §4, §5

[37] = system: SNB-75; assay: NCI-60 cytotoxicity; conditions: NCI-60 CNS Cancer, 48 h
Procedure: as §4, §5

[38] = system: SR; assay: NCI-60 cytotoxicity; conditions: NCI-60 Leukemia, 48 h
Procedure: as §4, §5

[39] = system: T-47D; assay: NCI-60 cytotoxicity; conditions: NCI-60 Breast Cancer, 48 h
Procedure: as §4, §5

[40] = system: TK-10; assay: NCI-60 cytotoxicity; conditions: NCI-60 Renal Cancer, 48 h
Procedure: as §4, §5

[41] = system: U251; assay: NCI-60 cytotoxicity; conditions: NCI-60 CNS Cancer, 48 h
Procedure: as §4, §5

[42] = 72 h, Table 7, read-out: GI50 ± SC (μM) HCT116
[43] = 72 h, Table 7, read-out: GI50 ± SC (μM) MCF-7

CNCCn1c(=O)c2cc(OC)c(OC)cc2c2ccc3cc4c(cc3c21)OCO4 [Compound 50, 2,3-dimethoxy-12-(2-(methylamino)ethyl)-[1,3]dioxolo[4′5′:4,5]benzo[1,2-c]phenanthridin-13(12H)-one]
GI50 [1, 42]: 0.036 µM | GI50 ([1]; drug-resistance panel, read-out: GI50 ± SD (μM) Parental cell line HCT116): 0.036 ± 0.003 µM | GI50 [2]: 0.97 µM | GI50 [3, 43]: 0.09 µM | GI50 ([3]; drug-resistance panel, read-out: GI50 ± SD (μM) Parental cell line MCF-7): 0.1 ± 0.001 µM | GI50 [4]: 0.127 µM | GI50 [5]: 0.0948 µM | GI50 [6]: 0.0856 µM | GI50 [7]: 0.202 µM | GI50 [8]: 0.0644 µM | GI50 [9]: 0.0201 µM | GI50 [10]: 0.0605 µM | GI50 [11]: 0.202 µM | GI50 [12]: 0.156 µM | GI50 [13]: 0.116 µM | GI50 [14]: 0.0515 µM | GI50 [15]: 0.0439 µM | GI50 [16]: 0.904 µM | GI50 [17]: 0.0508 µM | GI50 [18]: 0.145 µM | GI50 [19]: 0.0394 µM | GI50 [20]: 0.0389 µM | GI50 [21]: 0.0581 µM | GI50 [22]: 0.0292 µM | GI50 [23]: 0.172 µM | GI50 [24]: 0.0906 µM | GI50 [25]: 0.147 µM | GI50 [26]: 0.0212 µM | GI50 [27]: 0.0274 µM | GI50 [28]: 0.166 µM | GI50 [29]: 0.154 µM | GI50 [30]: 0.132 µM | GI50 [31]: 0.0763 µM | GI50 [32]: 0.0346 µM | GI50 [33]: 0.573 µM | GI50 [34]: 0.0909 µM | GI50 [35]: 0.171 µM | GI50 [36]: 0.116 µM | GI50 [37]: 0.0885 µM | GI50 [38]: 0.0173 µM | GI50 [39]: 0.0757 µM | GI50 [40]: 0.316 µM | GI50 [41]: 0.0394 µM

COc1cc2c(=O)n(CCN)c3c4cc5c(cc4ccc3c2cc1OC)OCO5 [Compound 67, 12-(2-aminoethyl)-2,3-dimethoxy-[1,3]dioxolo[4′,5′:4,5]benzo[1,2-c]phenanthridin-13(12-H)-one]
GI50 [1, 42]: 0.29 ± 0.019 µM | GI50 [2]: 0.98 ± 0.014 µM | GI50 [3, 43]: 0.1 ± 0.001 µM | GI50 [4]: 1.23 µM | GI50 [5]: 0.584 µM | GI50 [6]: 0.366 µM | GI50 [7]: 0.918 µM | GI50 [8]: 0.295 µM | GI50 [9]: 0.15 µM | GI50 [10]: 0.29 µM | GI50 [11]: 1.36 µM | GI50 [12]: 1.02 µM | GI50 [13]: 0.42 µM | GI50 [14]: 0.285 µM | GI50 [15]: 0.399 µM | GI50 [16]: 1.96 µM | GI50 [17]: 0.168 µM | GI50 [18]: 0.5 µM | GI50 [19]: 0.161 µM | GI50 [20]: 0.246 µM | GI50 [21]: 0.324 µM | GI50 [22]: 0.164 µM | GI50 [23]: 1.34 µM | GI50 [24]: 0.451 µM | GI50 [25]: 0.99 µM | GI50 [26]: 0.23 µM | GI50 [27]: 0.0875 µM | GI50 [28]: 0.826 µM | GI50 [29]: 0.782 µM | GI50 [30]: 0.93 µM | GI50 [31]: 0.257 µM | GI50 [32]: 0.279 µM | GI50 [33]: 3.05 µM | GI50 [34]: 0.614 µM | GI50 [35]: 0.739 µM | GI50 [36]: 0.398 µM | GI50 [37]: 0.596 µM | GI50 [38]: 0.0907 µM | GI50 [39]: 0.368 µM | GI50 [40]: 1.35 µM | GI50 [41]: 0.26 µM
